Test results from US20230000808A1, “COMPOSITIONS AND METHODS EXCLUDING OR WITH REDUCED GLUTAMINE FOR THE TREATMENT OF HEMOGLOBINOPATHIES AND THALASSEMIAS” (AXCELLA HEALTH INC., priority 2019, published 2023).

Legend:
TNFα = test: LPS-induced TNF-α secretion in primary human monocyte-derived macrophages (ELISA); assay type: cell-based; settings: LPS, baseline subtracted
Method: (§1) Primary human PMBC derived macrophages were seeded on day 0 at 3.0×10^4 cells per well in 96-well microplates (ThermoFisher) in Dulbecco's Modified Eagle Medium (DMEM) (Gibco) supplemented with penicillin-streptomycin (Hyclone) and 10% heat inactivated fetal bovine serum (HI-FBS) (Atlanta Bio) and incubated overnight at 37° C., 5% CO2. On day 1, cells were washed once with 150 μl per well DPBS (Gibco) and treated with 75 μl of: • a. […] The same medium described above with one amino acid at various concentrations including complete dropout. […] On day 3, the supernatant was collected and immediately frozen in −80° C. freezer. Cells were washed once with 150 μl DPBS and viability was assessed using the WST-8 Cell Proliferation Cytotoxicity Assay (Dojindo). […] Protein levels in supernatant samples were analyzed by ELISA for IL-6 and TNFα using commercially available kits (R&D Systems) according to manufacturer-supplied protocols.

[1] = test system: RBCs of healthy whole blood; test: RBC deformability (Elongation Index, LORRCA ektacytometry), ex vivo TBHP oxidation of healthy whole blood; assay type: cell-based, human; settings: healthy donor 2, single amino acid treatments
From the text: Whole blood from healthy African American and/or Hispanic donors was obtained from Research Blood Components, LLC based on the following donor selection criteria: Adult age (between 18 and 50 years), normal BMI (<30), and absence of other confounding clinical conditions. Whole blood from SCD donors were obtained from BioIVT based on the following donor selection criteria: Patients with genotypes HbSS, HbSC, HbS/β^0 and at least 1-2 months gap since last blood transfusion. Whole blood was shipped on ice on the same day as blood draw. Upon receipt, the blood sample was aliquoted and stored in the refrigerator until used for studies.
RBC deformability measurements were conducted with the Laser Optical Rotational Red Cell Analyzer (LORRCA) from RR Mechatronics in a temperature-controlled environment (37° C.). Briefly, an even layer of RBCs suspended in polyvinylpyrrolidone (PVP) is subjected to shear stress gradient (0.3 to 30 Pa) through two concentric cylinders and the resulting changes in RBC shape or deformability are measured by a laser beam diffraction pattern. The captured images of RBC shape in response to increasing shear stress are then analyzed by the LORRCA program to calculate Elongation Index (EI).
Healthy RBCs have higher deformability ≥0.5 EI and SCD RBCs have lower deformability or EI values as studied by LORRCA ektacytometry in the field. […] The induced hemolysis model in this disclosure involves use of tert-butyl hydroperoxide (TBHP) to lower EI of RBCs.
The ex vivo hemolysis study disclosed here involves overnight treatment of whole blood with vehicle as a control and specific amino acids followed by rapid oxidation (5 min) with TBHP. Method for oxidation of whole blood with tert-butyl hydroperoxide has been used in prior literature (Diederich L, et al, Front Physiol. 2018 May 11; 9:332). RBC deformability or shape changes are then measured with LORRCA ektacytometry.
Whole blood aliquots stored in the fridge were brought up to room temperature while gently shaking on a rocker at low speed for an hour to ensure gradual and uniform suspension of red blood cells prior to deformability measurements. Vehicle control used in the study was 1× Dulbecco's […]) and amino acids disclosed herein were added (at either final 10× or 2.5 mM concentration as indicated) to corresponding vehicle and amino acid treatment conditions. The samples were then incubated overnight at 37° C. The next day, 25 μl of whole blood was taken from each treatment condition and added to 5 mL Elon ISO viscous solution from RR Mechatronics. The sample was inverted 15-20 times to ensure proper mixing of the treated RBCs with the Elon ISO solution followed by loading the sample on LORRCA and capturing RBC deformability or shape measurements over the applied shear gradient. The remaining whole blood treatments were returned to incubator (37° C.) until deformability measurements were completed for all treatments. To the remaining whole blood treatment samples, TBHP solution (5.0-6.0 M in Decane, Sigma) was added at 2.5 mM final concentration from a 100 mM freshly prepared stock and incubated for further 5 min at 37° C. 25 μl of this TBHP-treated sample was immediately removed at the end of the 5 min incubation and added to the Elon ISO solution for RBC deformability measurement after oxidation. Included in the Tables 13-15 are EI measurements at ½ EImax shear stress 1.69 Pa and EImax shear stress 30 Pa from these studies and FIG. 1 captures EI measurements for all shear stress points for the indicated treatment conditions.

IL-6 [2] = test: LPS-induced IL-6 secretion in primary human monocyte-derived macrophages (ELISA); assay type: cell-based; settings: for Donor 1 IL-6 Measurements Mean / Donor 2 IL-6 Measurements Mean / Donor 3 IL-6 Measurements Mean: LPS, baseline subtracted
Method: as §1

HLMVEC = test: META-rank score, composite of VCAM1, ICAM1 and IL6 in the HLMVEC model; assay type: cell-based, human; settings: HLMVEC + TNF-α; lower score = more optimal; 20x HMDB / 5 mM
Method: The ability of single amino acids and combinations to simultaneously impact these phenotypes was measured by a META-rank score (Tables 17 and 18). META-rank score is a composite measure that considers the optimal impact on all 3 phenotypes (e.g. decrease VCAM1, ICAM1, and IL6) in the HLMVEC model.

IL-6 [3] = test: Secreted IL-6 in HLMVEC treated with TNF-α (FirePlex); assay type: cell-based, human; settings: HLMVEC + 0.5 ng/mL TNF-α, 24 h; amino acids 20x HMDB, Nac/Cit/Car 5 mM as bracketed
Method: (§2) Primary Human Lung Microvascular Endothelial Cells (HLMVEC; Lonza) were seeded at 6,000 cells per well in Endothelial Cell Growth Basal Medium-2 (Lonza) supplemented with Fetal Bovine Serum (FBS; Lonza), human EGF (Lonza), human VEGF (Lonza), R3-Insulin-like Growth Factor-1 (Lonza), ascorbic acid (Lonza), hydrocortisone (Lonza), human FGF-beta (Lonza), and gentamicin/amphotericin-b (Lonza) in a 96-well plate (Thermo Fisher). The cells were incubated for 45 minutes at room temperature, then incubated overnight at 37° C./5% CO2.
(§3) Following overnight incubation, cell were washed once with 150 μL of Dulbecco's phosphate buffered saline (DPBS; Gibco), and then treated with Endothelial Basal Medium MCB-131 (amino acid, glucose, sodium pyruvate, and phenol red free; US Biologicals) containing a defined custom amino acid concentration based on physiological concentrations in blood of patients with SCD (thus recapitulating observed metabolic imbalances such as the depletion of certain essential amino acids including arginine and aspartate and enrichment of certain non-essential amino acids including glutamate and asparagine), dialyzed FBS (Hyclone), human EGF (Lonza), human VEGF (Lonza), R3-Insulin-like Growth Factor-1 (Lonza), ascorbic acid (Lonza), hydrocortisone (Lonza), human FGF-beta (Lonza), and gentamicin/amphotericin-b (Lonza), glucose, 10 mM HEPES, sodium pyruvate, and sodium bicarbonate supplemented with one of the following: • a. PBS (vehicle control), • b. 0.5 ng/mL Tumor Necrosis Factor alpha (TNFα) and PBS, or; • c. 0.5 ng/mL TNF-α and amino acid treatments at 20× mean physiological concentrations in plasma based on values published in the Human Metabolome Database (HMDB) in PBS.
Supernatants were analyzed for IL-6 concentrations using a Human Cytokines FirePlex-HT Panel 1 kit (abcam) according to the manufacturer-supplied instructions. Particles were imaged on a high content imager (Molecular Devices), and results were interpolated from a standard curve with FirePlex Analysis Workbench Software (abcam) according manufacturer's recommendations.

ICAM-1 = ICAM-1 cell integrated intensity in HLMVEC treated with TNF-α (immunofluorescence); assay type: cell-based, human; settings: HLMVEC + 0.5 ng/mL TNF-α, 24 h; amino acids 20x HMDB, Nac/Cit/Car 5 mM as bracketed
Method: as §2, §3
(§4) After 24 hours of treatment, cells were washed once with 150 μL of DPBS (Gibco), then fixed with 4% paraformaldehyde. Following fixation, cells were stained with anti-ICAM-1 [MEM-111] (mouse IgG2a anti-human; abcam) and anti-VCAM1 [1.4C3] (mouse IgG1, K anti-human; abcam) primary antibodies at 1000×, and 100× dilutions respectively. Cells were then stained with Goat anti-Mouse IgG2a Cross-Adsorbed Secondary Antibody, Alexa Fluor 594 (Invitrogen) and Goat anti-Mouse IgG1 Cross-Adsorbed Secondary Antibody, Alexa Fluor 647 (Invitrogen) secondary antibodies. Nuclei were stained with Hoechst 3342 (Life Technologies).
(§5) Antibody binding was detected by fluorescence microscopy using a high content imager (Molecular Devices). Images were analyzed using MetaXpress 6 software to determine the integrated intensity per cell for each wavelength corresponding to ICAM-1 or VCAM-1.

VCAM-1 = VCAM-1 cell integrated intensity in HLMVEC treated with TNF-α (immunofluorescence); assay type: cell-based, human; settings: for VCAM-1 Cell Integrated Intensity Median: HLMVEC + 0.5 ng/mL TNF-α, 24 h, amino acids 20x HMDB, Nac/Cit/Car 5 mM as bracketed
Method: as §2, §3, §4, §5

[4] = Donor 1, Conc. 109 μM (baseline)

`N=C(N)NCCC[C@H](N)C(=O)O` [Arginine] was tested, and the “TNF-α Measurements Mean” value (TNFα; [4]) was 0, the “TNF-α Measurements Mean” value (TNFα; Donor 1, Conc. 1088 μM) was −24.33 and the “TNF-α Measurements Mean” value (TNFα; Donor 1, Conc. 2720 μM) was 5.12. The “TNF-α Measurements Mean” value (TNFα; Donor 1, Conc. 5440 μM) was 62.06, the “TNF-α Measurements Mean” value (TNFα; Donor 2, Conc. 109 μM (baseline)) was 1.42E−14 and the “TNF-α Measurements Mean” value (TNFα; Donor 2, Conc. 1088 μM) was −12.7222. For the same compound, the “TNF-α Measurements Mean” value (TNFα; Donor 2, Conc. 2720 μM) was −3.763, the “TNF-α Measurements Mean” value (TNFα; Donor 2, Conc. 5440 μM) was −0.5738 and the “TNF-α Measurements Mean” value (TNFα; Donor 3, Conc. 109 μM (baseline)) was 3.55E−15. For the same compound, the “TNF-α Measurements Mean” value (TNFα; Donor 3, Conc. 1088 μM) was 3.131, the “TNF-α Measurements Mean” value (TNFα; Donor 3, Conc. 2720 μM) was −0.9669 and the “TNF-α Measurements Mean” value (TNFα; Donor 3, Conc. 5440 μM) was −1.767. For the same compound, the “EI over vehicle control, both ½ EImax and EImax” value [1] was “higher than the vehicle”, the “Donor 1 IL-6 Measurements Mean” value (IL-6 [2]; [4]) was 0 and the “Donor 1 IL-6 Measurements Mean” value (IL-6 [2]; Donor 1, Conc. 1088 μM) was −181.36. The “Donor 1 IL-6 Measurements Mean” value (IL-6 [2]; Donor 1, Conc. 2720 μM) was −186.57, the “Donor 1 IL-6 Measurements Mean” value (IL-6 [2]; Donor 1, Conc. 5440 μM) was 357.4394 and the “effect on LPS-induced IL-6 secretion” value (IL-6 [2]; Donor 1, Two Way ANOVA Dunnett) was “increased”. For the same compound, the “Donor 2 IL-6 Measurements Mean” value (IL-6 [2]; Conc. 109 μM (baseline)) was 2.37E−15, the “Donor 2 IL-6 Measurements Mean” value (IL-6 [2]; Conc. 1088 μM) was −9.701 and the “Donor 2 IL-6 Measurements Mean” value (IL-6 [2]; Conc. 2720 μM) was −13.6102. For the same compound, the “Donor 2 IL-6 Measurements Mean” value (IL-6 [2]; Conc. 5440 μM) was −12.4164, the “Donor 3 IL-6 Measurements Mean” value (IL-6 [2]; Conc. 109 μM (baseline)) was 0 and the “Donor 3 IL-6 Measurements Mean” value (IL-6 [2]; Conc. 1088 μM) was 31.5786. The “Donor 3 IL-6 Measurements Mean” value (IL-6 [2]; Conc. 2720 μM) was −7.503 and the “Donor 3 IL-6 Measurements Mean” value (IL-6 [2]; Conc. 5440 μM) was −6.81.

For `NC(=O)NCCC[C@H](N)C(=O)O` [Cit, citrulline], the “Meta-Rank (Table 18)” value (HLMVEC) was 8, the “Metarank (Table 17)” value (HLMVEC) was 16 and the “EI over vehicle control, both ½ EImax and EImax” value [1] was “higher than the vehicle”. For the same compound, the “Secreted IL6 Median” value (IL-6 [3]) was −0.270, the “ICAM-1 Cell Integrated Intensity Median” value (ICAM-1) was −0.118 and the “VCAM-1 expression in HLMVEC” value (VCAM-1; 0.5 ng/mL TNF-α, amino acids at 20× HMDB, 24 hours) was “moderate effect”. For the same compound, the “VCAM-1 Cell Integrated Intensity Median” value (VCAM-1) was −0.157.

For `NCCC[C@H](N)C(=O)O` [Orn], the “Meta-Rank (Table 18)” value (HLMVEC) was 6.5, the “Metarank (Table 17)” value (HLMVEC) was 11 and the “Secreted IL6 Median” value (IL-6 [3]) was −0.378. For the same compound, the “ICAM-1 Cell Integrated Intensity Median” value (ICAM-1) was −0.197 and the “VCAM-1 Cell Integrated Intensity Median” value (VCAM-1) was −0.196.

For `N[C@@H](CO)C(=O)O` [Ser], the “Meta-Rank (Table 18)” value (HLMVEC) was 19, the “Metarank (Table 17)” value (HLMVEC) was 23 and the “Secreted IL6 Median” value (IL-6 [3]) was −0.153. For the same compound, the “ICAM-1 Cell Integrated Intensity Median” value (ICAM-1) was 0.076 and the “VCAM-1 Cell Integrated Intensity Median” value (VCAM-1) was 0.139.

In the case of `N[C@@H](Cc1c[nH]c2ccccc12)C(=O)O` [Trp], the “Meta-Rank (Table 18)” value (HLMVEC) is reported as 24, the “Metarank (Table 17)” value (HLMVEC) is reported as 12 and the “Secreted IL6 Median” value (IL-6 [3]) is reported as −0.357. For the same compound, the “ICAM-1 Cell Integrated Intensity Median” value (ICAM-1) was 0.171 and the “VCAM-1 Cell Integrated Intensity Median” value (VCAM-1) was 0.162.

In the case of `CC(C)[C@H](N)C(=O)O` [Val], the “Meta-Rank (Table 18)” value (HLMVEC) is reported as 25.5, the “Metarank (Table 17)” value (HLMVEC) is reported as 18 and the “Secreted IL6 Median” value (IL-6 [3]) is reported as −0.224. The “ICAM-1 Cell Integrated Intensity Median” value (ICAM-1) was 0.167 and the “VCAM-1 Cell Integrated Intensity Median” value (VCAM-1) was 0.315.
